Results as given in paper PMC11758220, “Identification of a Privileged Scaffold for Inhibition of Sterol Transport Proteins through the Synthesis and Ring Distortion of Diverse, Pseudo-Natural Products” (ACS Central Science, 2025).

What was measured:
Aster-C = target: T1, Aster-C (Homo sapiens, UniProt Q8IYS0); assay: Fluorescence polarisation (FP) competition with NBD-cholesterol, Aster-C; assay type: binding; settings: for Aster-C (FP) inhibition / inhibition at 10 µM: single dose, Dose = 10 µM; for IC50: mean of three experiments run in technical duplicates
T1 construct: -C(318-504); GST (PreScission-cleavable) (N, cleaved yes); made in house; host or cells: E. coli OverExpress C41
Description: (§1) Protein expression constructs
(§2) Human ASTER domains of Aster-A(359-547), -B(364-552) and -C(318-504) were subcloned into a pGEX-6p-2rbs vector, thus introducing the cloning artifact ‘GPLGS’.3 The pGEX-6P-1-GST-OSBP(377- […]
(§3) a gift from James H. Hurley (University of California).4 The pHIS_2His6_Thrombin_STARD4(2-205;C75S) plasmid was a gift from Young Jun Im (Chonnam National University).5 STARD5A was a gift from Nicola Burgess-Brown (Addgene plasmid #42392; http://n2t.net/addgene:42392; […]
(§4) Protein expression and purification […]
(§5) vectors including an N-terminal PreScission-cleavable glutathione S-transferase (GST)-tag were expressed in Escherichia coli (E. coli) OverExpress C41 in Terrific Broth (TB) medium for 16 h at 18 °C after the induction with 0.1 mM isopropyl β-D-1-thiogalactopyranoside (IPTG). Cells were harvested at 3500 × g for 15 minutes and lysed by sonication in buffer containing 50 mM HEPES pH 7.5, 300 mM NaCl, 10 %v/v glycerol, 5 mM dithiothreitol (DTT), 0.1 %v/v Triton X-100 and protease inhibitor mix HP plus (Serva). The lysate was purified by affinity chromatography on a GSTrap FF column (Cytiva) using an ÄKTA Start (Cytiva) in buffer containing 50 mM HEPES pH 7.5, 300 mM NaCl, 10 %v/v glycerol, 5 mM DTT and 0.01 %v/v Triton X-100. The GST-tag was cleaved overnight on the column at 4 °C. The Aster sterol binding domains were further purified by size-exclusion chromatography (SEC) on a HiLoad 16/600 Superdex 75 pg (Cytiva) in buffer containing 20 mM HEPES pH 7.5, 300 mM NaCl, 10 %v/v […]
(§6) STARD5(6-213) harboring an N-terminal His6-Tag were expressed in E. coli BL21(DE3) in Luria-Bertani Broth (LB) medium for approximately 16 h at 18 °C after induction with 0.15 mM IPTG. Cells were harvested at 3500 × g for 15 minutes and lysed by sonication in buffer containing 50 mM HEPES pH 7.5, 150 mM NaCl, 5 %v/v glycerol, 5 mM DTT, 0.1 %v/v Triton X -100 and ethylenediaminetetraacetic acid (EDTA)-free protease inhibitor cocktail (Sigma-Aldrich). The cleared lysate was purified by affinity chromatography on a Ni-NTA Superflow Cartridge (Qiagen) using an ÄKTA Start (Cytiva) in buffer containing 50 mM HEPES pH 7.5, 150 mM NaCl, 5 %v/v glycerol, 5 mM DTT. START domains were eluted by using elution buffer containing 50 mM HEPES pH 7.5, 150 mM NaCl, 5 %v/v glycerol, 5 mM DTT and 500 mM imidazole. Proteins were further purified by SEC on a HiLoad 16/600 Superdex 75 pg (Cytiva) in buffer containing 20 mM HEPES pH 7.5, 150 mM NaCl, 5 %v/v glycerol and 2 mM DTT.
(§7) The ORP domain of human OSBP(377-807) in the pGEX-6p-1 vector with an N-terminal PreScission-cleavable GST-tag was expressed in E. coli OverExpress C41 in LB medium for 16 h at 18 °C after induction with 0.1 mM IPTG. Cells were harvested at 3500 × g for 15 minutes and lysed by sonication in buffer containing 20 mM HEPES pH 7.5, 300 mM NaCl, 10 %v/v glycerol, 5 mM DTT, 0.1 %v/v Triton X-100 and EDTA-free protease inhibitor cocktail (Sigma-Aldrich). The cleared lysate was purified by affinity chromatography on a GSTrap HF column (Cytiva) using an ÄKTA Start (Cytiva) in buffer containing 20 mM HEPES pH 7.5, 300 mM NaCl, 10 %v/v glycerol, 5 mM DTT. OSBP(377 -807) was eluted by using elution buffer containing 20 mM HEPES pH 7.5, 300 mM NaCl, 10 %v/v glycerol, 5 mM DTT and 10 mM reduced glutathione. Proteins were further purified by SEC on a HiLoad 16/600 Superdex 75 pg (Cytiva) using an ÄKTA Explorer (Cytiva) in buffer containing 20 mM HEPES pH 7.5, 150 mM NaCl, 10 %v/v glycerol and 2 mM DTT.
(§8) The ORP domains of human ORP1(534-950) in pET24b(+) and ORP2(49-480) in the pET24b(+) vector including an N-terminal His6-Tag were expressed in E. coli BL21(DE3) in TB medium for approximately 16 h at 18 °C after induction with 0.1 mM IPTG. Cells were collected at 3500 × g for 15 minutes and lysed by sonification in buffer containing 10 mM Tris-HCl pH 8, 300 mM NaCl, 5 % glycerol, 2 mM DTT, 0.1 % Triton X-100 and EDTA-free protease inhibitor cocktail (Sigma-Aldrich). The cleared […]

ORP1 = target: T2, ORP1 (Homo sapiens, UniProt Q9BXW6); assay: Fluorescence polarisation (FP) competition with NBD-cholesterol, ORP1; assay type: binding; settings: for ORP1 (FP) inhibition / inhibition at 10 µM: single dose, Dose = 10 µM; for IC50: mean of three experiments run in technical duplicates
T2 construct: ORP1(534-950); host or cells: E. coli BL21(DE3)
T2 sequence (Q9BXW6 534-950): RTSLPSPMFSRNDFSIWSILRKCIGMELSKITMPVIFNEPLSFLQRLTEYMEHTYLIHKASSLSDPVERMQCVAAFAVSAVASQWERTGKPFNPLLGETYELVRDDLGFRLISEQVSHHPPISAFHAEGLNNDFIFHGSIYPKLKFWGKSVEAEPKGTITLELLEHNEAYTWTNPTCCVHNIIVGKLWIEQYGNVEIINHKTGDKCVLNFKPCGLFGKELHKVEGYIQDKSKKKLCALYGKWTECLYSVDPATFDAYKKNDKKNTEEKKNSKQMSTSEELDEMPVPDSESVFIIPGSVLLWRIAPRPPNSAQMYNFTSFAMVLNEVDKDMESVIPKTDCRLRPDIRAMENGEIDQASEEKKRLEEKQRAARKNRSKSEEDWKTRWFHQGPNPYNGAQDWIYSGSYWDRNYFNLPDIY
Description: as §1, §2, §3, §4, §5, §6, §7, §8

T1 sequence (Q8IYS0 318-504): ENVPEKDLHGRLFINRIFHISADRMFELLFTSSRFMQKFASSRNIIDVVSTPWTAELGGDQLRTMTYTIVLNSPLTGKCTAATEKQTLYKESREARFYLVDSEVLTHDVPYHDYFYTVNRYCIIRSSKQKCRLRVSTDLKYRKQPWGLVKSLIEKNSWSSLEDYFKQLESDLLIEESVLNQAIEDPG

For `Cc1nc2c(s1)CC[C@@H]1C[C@H](O)CC[C@]21C` [Compound 8b], the “Aster-C (FP) inhibition” value (Aster-C) was -1.6% and the “ORP1 (FP) inhibition” value (ORP1) was -2.5%.
For `CC(C)Oc1ccc(C(=O)Nc2nc3c(s2)CN(C(=O)OC(C)(C)C)CC3)cc1` [Autogramin-2, reference compound], the IC50 (Aster-C) was > 80 µM, the “Aster-C (FP) inhibition” value (Aster-C) was -1.6% and the IC50 (ORP1) was 4.26 µM. For the same molecule, the “ORP1 (FP) inhibition” value (ORP1) was 57.5%.
With `CCOC(=O)c1ccc2[nH]c3c(c2c1)CC[C@@H]1C[C@H](O)CC[C@]31C` [Compound 10k] the “Aster-C (FP) inhibition” value (Aster-C) was -6% and the “ORP1 (FP) inhibition” value (ORP1) was 10.0%.
Molecule `C[C@]12CC[C@@H](O)C[C@H]1CCC(=O)c1cc(C(F)(F)F)ccc1NC2=O` [Compound 11e] has an inhibition at 10 µM (Aster-C) of -1.6% and an inhibition at 10 µM (ORP1) of -3.3%.
With `CC(C)(C)OC(=O)N1CCN(c2ccc3c(c2)C24CCC5CC(CCC52C)OC4=N3)CC1` (stereo not shown) [Compound 19e] the IC50 (Aster-C) was > 80 µM, the inhibition at 10 µM (Aster-C) was 1.6% and the inhibition at 10 µM (ORP1) was 41.7%.
With `C[C@]12CC[C@@H](O)C[C@H]1CCc1c2[nH]c2ccc(Br)cc12` [Compound 10b] the “Aster-C (FP) inhibition” value (Aster-C) was -5% and the “ORP1 (FP) inhibition” value (ORP1) was 21.7%.
For `CC12CCC3CC1CCC21C(=Nc2ccc(Br)cc21)O3` (single isomer, unassigned; (+)) [(+)-15b], the IC50 (Aster-C) was > 80 µM, the inhibition at 10 µM (Aster-C) was 0% and the IC50 (ORP1) was > 80 µM. It also gave an inhibition at 10 µM (ORP1) of 0%.
In the case of `CC12CCC3CC1CCC21C(=Nc2ccc(N4CCNCC4)cc21)O3` (stereo not shown) [Compound 22], the IC50 (Aster-C) is reported as > 80 µM, the inhibition at 10 µM (Aster-C) is reported as -1.6% and the inhibition at 10 µM (ORP1) is reported as -7.5%.
For `C[C@@]12CC[C@H]3C[C@@H]1CC[C@]21C(=Nc2ccc(Br)cc21)O3` [(−)-15b], the IC50 (Aster-C) was > 80 µM, the inhibition at 10 µM (Aster-C) was -0.8% and the IC50 (ORP1) was 15.3 µM. For the same molecule, the inhibition at 10 µM (ORP1) was 68.3%.
In the case of `C[C@]12CC[C@@H](O)C[C@H]1CCc1c2[nH]c2ncccc12` [Compound 3], the inhibition at 10 µM (Aster-C) is reported as -3.2% and the inhibition at 10 µM (ORP1) is reported as -5.8%.
`Cc1c2c(nc3cc(Br)ccc13)[C@@]1(C)CC[C@@H](O)C[C@H]1CC2` [Compound 2c] was tested, and the “Aster-C (FP) inhibition” value (Aster-C) was -1.6% and the “ORP1 (FP) inhibition” value (ORP1) was 81.7%.
For `CC12CCC(O)CC1CCc1c2[nH]c2ccc(C(F)(F)F)cc12` (stereo not shown) [Compound 10g], the inhibition at 10 µM (Aster-C) was -5% and the inhibition at 10 µM (ORP1) was 39.2%.
With `C[C@]12CC[C@@H]3C[C@H]1CC[C@@]21C(=Nc2ccccc21)O3` [Compound 15a] the IC50 (Aster-C) was > 80 µM, the inhibition at 10 µM (Aster-C) was -4% and the inhibition at 10 µM (ORP1) was 10%.
With `CC12CCC3CC1CCC21C(=Nc2ccc(NCc4ccccc4)cc21)O3` (stereo not shown) [Compound 19b] the IC50 (Aster-C) was > 80 µM, the inhibition at 10 µM (Aster-C) was -2.4% and the IC50 (ORP1) was 21.8 µM. It also gave an inhibition at 10 µM (ORP1) of 66.7%.
Molecule `COc1ccc2c(c1)[C@]1(O)CC[C@@H]3C[C@H](O)CC[C@]3(C)C1=N2` [Compound 14b] has an inhibition at 10 µM (Aster-C) of 3.2% and an inhibition at 10 µM (ORP1) of 0%.
`C[C@]12CC[C@@H](O)C[C@H]1CCc1c2[nH]c2c(F)cc(Cl)cc12` [Compound 10i] showed an inhibition at 10 µM (Aster-C) of -1.6% and an inhibition at 10 µM (ORP1) of 14.2%.
In the case of `C[C@]12CC[C@@H](O)C[C@H]1CCc1sc(-c3cccnc3)nc12` [Compound 8c], the “Aster-C (FP) inhibition” value (Aster-C) is reported as 0% and the “ORP1 (FP) inhibition” value (ORP1) is reported as 5.8%.
`COc1ccc2[nH]c3c(c2c1)CC[C@@H]1C[C@H](O)CC[C@]31C` [Compound 10f] was tested, and the inhibition at 10 µM (Aster-C) was 0% and the inhibition at 10 µM (ORP1) was 11.7%.
Molecule `Cc1c2c(nc3ccccc13)[C@@]1(C)CC[C@@H](O)C[C@H]1CC2` [Compound 2a] has an inhibition at 10 µM (Aster-C) of -2.4% and an inhibition at 10 µM (ORP1) of 53.3%.
`C[C@]12CC[C@@H]3C[C@H]1CC[C@@]21C(=Nc2ccc(N4CCN(Cc5ccncc5)CC4)cc21)O3` [Compound 24] was tested, and the IC50 (Aster-C) was > 80 µM, the inhibition at 10 µM (Aster-C) was 0% and the IC50 (ORP1) was > 50 µM. It also gave an inhibition at 10 µM (ORP1) of 112%.
In the case of `C[C@]12CC[C@@H](O)C[C@H]1CCc1c2nc2ccccc2c1-c1ccccc1` [Compound 2b], the “Aster-C (FP) inhibition” value (Aster-C) is reported as -5.6% and the “ORP1 (FP) inhibition” value (ORP1) is reported as 11.7%.
In the case of `COc1ccc(-c2nc3c(s2)CC[C@@H]2C[C@H](O)CC[C@]32C)cc1` [Compound 8d], the inhibition at 10 µM (Aster-C) is reported as 0.8% and the inhibition at 10 µM (ORP1) is reported as 66.7%.
With `COc1ccc(-c2ccc3c(c2)C24CCC5CC(CCC52C)OC4=N3)cc1` (stereo not shown) [Compound 21b] the IC50 (Aster-C) was > 80 µM, the inhibition at 10 µM (Aster-C) was -3.2% and the IC50 (ORP1) was 5.24 µM. The inhibition at 10 µM (ORP1) was 72.5%.
